From patent US20220220100A1 (SOLUTIA CANADA INC., priority 2019, published 2022)

Columns and labels:
Type in all cases: physicochemical
[1] = Photostability: xenon arc weathering of chromophore solutions, LCMS analysis; details: for Ketone (%) / Minus-2HF (%) / Minus-HF (%) / Sulfone (%) / Chromophore Remaining (%): xenon arc, 82° C. bp; for Ketone (%) / Minus-2HF (%) / Minus-HF (%) / Sulfone (%): linearly interpolated to 0.5 MJ/m2 @ 340 nm; for Chromophore Remaining (%): linearly interpolated to 0.5 MJ/m2 @ 340 nm of exposure energy; for Ratio of chromophore remaining relative to S340: interpolated to 0.5 MJ/m^2 of energy exposure at 340 nm
Summary of the method: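 Chromophores were dissolved at 1 to 10 wt % in Rhodiasolv IRIS at 90° C, then sealed under glovebox conditions in glass cells laminated with 400 nm UV-cutoff PVB. The cells were weathered continuously in a xenon arc chamber with no dark or spray cycles. Solutions were then diluted in acetonitrile and analysed by reverse-phase LC-MS.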

[2] = UV/Vis absorbance at 400 nm and Yellowness Index of the ring-open isomer; details: for Abs @ 400 nm, RO (Absorption of ring-open isomer at 400 nm): 2×10^−5 M solution, 1 cm pathlength cuvette
Summary of the method: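 Compound measured as a 2×10^−5 M solution in a 1 cm cuvette after photofading with visible light until visible absorption stabilized. Absorbance at 400 nm and Yellowness Index refer to this ring-open isomer.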

[3] = Oxidation potential of ring-closed and ring-open isomers; details: no unit printed in table (V relative to Ag/AgCl)

| SMILES | Formation of the Minus-HF degradation product (in words) [1] | Ketone (%) ([1]; 3 wt % in Rhodiasolv IRIS) | Minus-2HF (%) ([1]; 3 wt % in Rhodiasolv IRIS) | Minus-HF (%) ([1]; 3 wt % in Rhodiasolv IRIS) | Sulfone (%) ([1]; 3 wt % in Rhodiasolv IRIS) | Chromophore Remaining (%) ([1]; 3 wt % in Rhodiasolv IRIS) | Ratio of chromophore remaining relative to S340 ([1]; 3 wt %) | YI (Yellowness Index) [2] | Abs @ 400 nm, RO (Absorption of ring-open isomer at 400 nm) [2] | RC [O] (oxidation potential of ring-closed isomer) [3] | RO [O] (oxidation potential of ring-open isomer) [3] | Ketone (%) ([1]; 10 wt % in Rhodiasolv IRIS) | Minus-2HF (%) ([1]; 10 wt % in Rhodiasolv IRIS) | Minus-HF (%) ([1]; 10 wt % in Rhodiasolv IRIS) | Sulfone (%) ([1]; 10 wt % in Rhodiasolv IRIS) | Chromophore Remaining (%) ([1]; 10 wt % in Rhodiasolv IRIS) | Ratio of chromophore remaining relative to S340 ([1]; 10 wt %) |
| --- | --- | --- | --- | --- | --- | --- | --- | --- | --- | --- | --- | --- | --- | --- | --- | --- | --- |
| COc1cc2oc(-c3ccc(C(C)(C)C)cc3)c(C3=C(c4cc(-c5ccc(C(C)(C)C)s5)sc4-c4sc(C(C)(C)C)cc4C)C(F)(F)C(F)(F)C3(F)F)c2cc1OC [Chromophore S378, 2-(4-(tert-butyl)phenyl)-3-(2-(5,5″-di-tert-butyl-3-methyl-[2,2′:5′,2″-terthiophen]-3′-yl)-3,3,4,4,5,5-hexafluorocyclopent-1-en-1-yl)-5,6-dimethoxybenzofuran] | does not occur | 0.0 | 0.0 | 0.0 | 7.5 | 92.5 | 1.02 | 4.94 | 0.127 | 0.9 | 1.36 |  |  |  |  |  |  |
| CCOC(=O)CCCOc1cc2oc(-c3ccc(C(C)(C)C)cc3)c(C3=C(c4cc(-c5ccc(C(C)(C)C)s5)sc4-c4sc(C(C)(C)C)cc4C)C(F)(F)C(F)(F)C3(F)F)c2cc1OCCCC(=O)OCC [Chromophore S383, diethyl 4,4′-((2-(4-(tert-butyl)phenyl)-3-(2-(5,5″-di-tert-butyl-3-methyl-[2,2′:5′,2″-terthiophen]-3′-yl)-3,3,4,4,5,5-hexafluorocyclopent-1-en-1-yl)benzofuran-5,6-diyl)bis(oxy))dibutanoate] | does not occur |  |  |  |  |  |  | 4.52 | 0.144 | 0.91 | 1.36 | 0.0 | 0.0 | 0.0 | 0.0 | 100.0 | 1.10 |
| CCOC(=O)CCCOc1cc2oc(-c3ccc(C(C)(C)C)cc3)c(C3=C(c4cc(-c5sc(C(C)(C)C)cc5C)sc4-c4sc(C(C)(C)C)cc4C)C(F)(F)C(F)(F)C3(F)F)c2cc1OCCCC(=O)OCC [Chromophore S384, diethyl 4,4′-((2-(4-(tert-butyl)phenyl)-3-(2-(5,5″-di-tert-butyl-3,3″-dimethyl-[2,2′:5′,2″-terthiophen]-3′-yl)-3,3,4,4,5,5-hexafluorocyclopent-1-en-1-yl)benzofuran-5,6-diyl)bis(oxy))dibutanoate] | does not occur |  |  |  |  |  |  | 4.13 | 0.107 | 0.87 | 1.31 | 0.0 | 0.0 | 0.0 | 1.3 | 97.2 | 1.07 |
